Experimental data: patent US20090292021A1, “ANTICONVULSIVE PHARMACEUTICAL COMPOSITIONS” (INSERM (INSTITUT NATIONAL DE LA SANTE ET DE LA REC, priority 2006, published 2009)

What was measured:
Type in all cases: in vivo, rat
[1] = test system: Wistar rats; assay: Length of disorganized outer retina on DAPI-stained retinal sections; settings: treatment of 45 days, mean ± S.E.M, n=8
Protocol: (§1) As described previously Duboc, A., Hanoteau, N., Simonutti, M., Rudolf, G., Nehlig, A., Sahel, J. A., Picaud, S. (2004). “Vigabatrin, the GABA-transaminase inhibitor, damages cone photoreceptors in rats.” Annals of Neurology 55(5): 695-705), Wistar rats Rj Wi IOPS Han were purchased from Janvier Breeding Center (Le Genest St Isle, France) at 7 weeks and acclimatised for 2 weeks. VGB was dissolved in 0.9% NaCl at a concentration of 125 mg/ml. It was injected daily and intraperitonealy at a final dose of 250 mg/kg. To investigate the progression of visual defects with the treatment duration, rats of the same age were divided in five groups and treated with the drug for different times as described in table 1 hereunder.
(§2) After the animal sacrifice, the cornea was branded at the upper side to orient the eye cup. The eyes were dissected, the cornea and lens removed and a nick was made on the upper side of the eye cup. Eye cups were embedded in OCT (Labonord, Villeneuve d'Ascq, France) to prepare cryosection (Duboc et al 2004, Supra). Dorso-ventral retinal sections passing through the optic nerve were stained with Diamidi-phenyl-indole (DAPI). […] The retinal length showing displaced photoreceptor nuclei was measured on both part of the optic nerve on the retina of VGB-treated rat.

[2] = test system: Wistar rats; assay: VEGF immunolabeling of retinal sections; settings: VGB-treated vs control animals
Protocol: as §1
as §2, with “rat. […]” for “rat.”

[3] = test system: Wistar rats; assay: Flicker ERG recording in VGB-treated rats; settings: for decrease of flicker ERG amplitude: vs before treatment
Protocol: as §1
Flicker ERGs were recorded on each animal before the treatment, at the end of the VGB treatment, and 4-day later. For the study of functional recovery after VGB withdrawal, flicker ERGs were recorded before the treatment, at 35-day of treatment, 16-day recovery and 60-day recovery period.
Animals were kept in the dark room for at least 12 hours and handled under dim red light. They were anaesthetized by an intraperitoneal (i.p) injection (1 to 1.5 ml/kg) of a solution containing ketamine (40 mg/ml) and xylazine (4 mg/ml Rompum). Pupils were dilated with a drop of 0.5% tropicamide, and the cornea was locally anaesthetized with a drop of 0.4% chlorhydrate d'oxybupropacaïne. Measurements were obtained from the right eye of animals laid on a temperature controlled blanket. The measuring electrode, a gold ring covered with a plastic contact lens, was placed on the cornea and a tight electrical contact was obtained by addition of methylcellulose. The reference and ground electrodes made from needles were subcutaneously inserted at the head and the tail respectively. Finally, the whole animal was placed in a Ganzfeld bowl delivering light stimuli (Toennies Multiliner Vision, Höchberg, Germany). For flickering ERG measurements, animals were adapted for 10 minutes to a white background light at a 25 cdm^−2 to suppress rod responses. Flicker responses were obtained with 50 white light flashes at a 2.5 cdsm^−2 intensity and a 15 Hz flickering frequency (High pass filter 1 Hz and low pass filter 300 Hz). Amplitude and implicit time responses of the flicker ERG were measured at the first maximum positive peak with respect to the light onset.

[4] = test system: Wistar rats; assay: Immunolabeling of retinal sections: cone arrestin (cone count) and G0α (ON bipolar cells); settings: treated for 45 days
Protocol: as §1
After the animal sacrifice, the cornea was branded at the upper side to orient the eye cup. The eyes were dissected, the cornea and lens removed and a nick was made on the upper side of the eye cup. Eye cups were embedded in OCT (Labonord, Villeneuve d'Ascq, France) to prepare cryosection (Duboc et al 2004, Supra). Dorso-ventral retinal sections passing through the optic nerve were stained with Diamidi-phenyl-indole (DAPI). The DAPI-nuclear staining was visualized on a Leica microscope (20× objective) and digitalized on a camera coupled to optical image analysis software (Analysis program). The retinal length showing displaced photoreceptor nuclei was measured on both part of the optic nerve on the retina of VGB-treated rat.
For immunolabeling, the oriented retinal sections were permeabilized for 5 minutes in PBS containing 0.1% Triton X-100 (Sigma, St Louis, Mo.), rinsed and incubated in PBS containing 1% bovine serum albumin (Eurobio, Les-Ulis, France), 0.1% Tween 20 (Sigma) and 0.1% sodium azide (Merck, Fontenay-Sous-Bois) for 2 hours at room temperature. The primary antibodies added to the solution were incubated for 2 hours at room temperature. Antibodies used were the anti-VEGF rabbit polyclonal antibody (1:400, Ab-1, NeoMarkers, Interchim, France), the monoclonal anti-vimentin antibody (1:400, cloneV9, DAKO, France), the polyclonal mCAR antibody (1:10,000; a gift from Dr Cheryl Craft (Keck School of Medicine of the University of Southern California, Los Angeles, USA)), and the monoclonal anti-G0-α antibody (1:500, Chemicon). After several washes, sections were incubated with the secondary antibodies, goat anti-rabbit IgG conjugated to Alexa TM 594 and goat anti-mouse IgG conjugated to Alexa TM 488 (1:500, (Molecular Probes, Eugene, Oreg.) for 2 hours. The nuclear dye, DAPI, was added in an incubation solution. Sections were mounted with the Fluorsave reagent (Calbiochem, San Diego, Calif.).

[5] = test system: Wistar rats; assay: Indocyanine green (ICG) angiography of choroidal vessels
Protocol: as §1
For ICG angiography, animals were anesthetized as above. A solution of Infracyanine (0.1 ml, 5 mg/ml, Société d'Etude et de Recherche Biologiques, Paris, France) dissolved in distilled water was injected intravenously. Images were obtained with the 795 nm laser light immediately after the injection.

[6] = test system: Wistar rats; assay: Exploration of eye fundus with scanning laser ophthalmoscope (SLO)
Protocol: as §1
Examination of the eye fundus was performed with a Scanning Laser Opthalmoscope (SLO) (HRA, Heidelberg, Dossenheim, Allemagne). Pupils were dilated with a drop of 0.5% tropicamide. During the examination an experimenter hold the animal to point the eye in the axis of camera. To limit animal stress, the duration of examination was minimized and these short sequences were alternated with rests periods. Eye fundus in each animal eye was examined in unanaesthetized rats with the 534 nm laser light beam using a filter to decrease its intensity. Fundus autofluorescence was obtained with the 488 nm laser beam.

length of disorganized outer retina, lower pole [1]: 70 μm
length of disorganized outer retina, upper pole [1]: 1106 μm
VEGF expression in retina (Müller glial cells) [2]: increase in VEGF expression
flicker ERG amplitude ([3]; 15-day treatment, after 4-day recovery period): 51 μV
flicker ERG amplitude ([3]; 25-day treatment, after 4-day recovery period): 38 μV
flicker ERG amplitude ([3]; 35-day treatment, after 4-day recovery period): 50 μV
flicker ERG amplitude ([3]; end of 5-day treatment, 250 mg/kg daily i.p.): 83 μV
flicker ERG amplitude ([3]; end of 15-day treatment, 250 mg/kg daily i.p.): 52 μV
decrease of flicker ERG amplitude ([3]; end of 15-day treatment): 45%
flicker ERG amplitude ([3]; end of 25-day treatment, 250 mg/kg daily i.p.): 21 μV
decrease of flicker ERG amplitude ([3]; end of 25-day treatment): 79%
flicker ERG amplitude ([3]; end of 35-day treatment, 250 mg/kg daily i.p.): 29 μV
decrease of flicker ERG amplitude ([3]; end of 35-day treatment): 71%
flicker ERG amplitude ([3]; recovery study, 35-day treatment, 16-day recovery): 84 μV
reduction of flicker ERG ([3]; recovery study, 35-day treatment, 16-day recovery, vs value before treatment): 31%
flicker ERG amplitude ([3]; recovery study, 35-day treatment, 60-day recovery): 88 μV
reduction of flicker ERG ([3]; recovery study, 35-day treatment, 60-day recovery, vs value before treatment): 28%
flicker ERG amplitude ([3]; recovery study, 35-day treatment, immediately after treatment, n=6): 51 μV
reduction of flicker ERG ([3]; recovery study, 35-day treatment, immediately after treatment, vs beginning of experiment): 58%
cone morphology, cone arrestin labelling [4]: many cones were observed to be truncated
decrease in density of cones vs control rats ([4]; cone arrestin immunolabeling): 18.7%
density of cones ([4]; cone arrestin immunolabeling, n=7): 12.34±0.36 cells/300 μm
ICG fluorescence in areas showing modified eye fundus after extravasation ([5]; animals treated for 55 days): inhomogeneous fluorescent image
modified retinal areas at eye fundus, SLO ([6]; after arresting the VGB treatment for one month (n=2)): remained visible
modified retinal areas (dark/grey network) at eye fundus, green laser SLO ([6]; after treatment of 25 days (n=4), 35 days (n=1) and 55 days (n=4)): present in all animals examined
modified retinal areas at eye fundus, SLO ([6]; animals treated for 5 days (n=1) or 11 days (n=3)): No such modified areas were detected
Structure (SMILES): C=CC(N)CCC(=O)O (centres unmarked) [VGB, 4-amino-5-hexenoic acid]
ON bipolar cells labeled with G0α antibody [4]: some cells were observed to send a process into the ONL
size or aspect of the choroidal vasculature ([5]; after treatment of 25 (n=4) and 55 days (n=4)): no change in the size or aspect of the choroidal vasculature could be detected
retinal autofluorescence, SLO ([6]; 488 nm laser, in vivo): fluorescent spots were observed in the modified areas in two rats
